Laboratory results: article PMC13086964, “USP7 deubiquitinase stabilizes FAN1 to support DNA crosslink repair and suppress CAG repeat expansion” (Nature Communications, 2026)

System: RPE-1 p53 KO cells
Experiment: apoptosis: PARP-1 and caspase-3 cleavage, RPE-1 p53 KO
Format: cell-based, human
Conditions: RPE-1 p53 KO cells depleted of FAN1, USP7, or both, MMC 1 μg/ml, 48 h
Procedure: If not stated otherwise, cells were lysed in RIPA buffer (50 mM Tris-HCl, pH 7.5, 150 mM NaCl, 1% IGEPAL, 0.5% sodium deoxycholate, 0.1% SDS) supplemented with phosphatase inhibitors (20 mM NaF and 1 mM Na3VO4) and protease inhibitors (1 mM benzamidine and 0.1 mM PMSF), incubated with Benzonase (Merck) for at least 30 min at 4 °C, and clarified by centrifugation. Proteins were resolved by SDS-PAGE and transferred to nitrocellulose membranes. Immunoblots were performed with the indicated antibodies, and proteins were visualized using the Advansta WesternBright ECL reagent and the Fusion Solo S imaging system. Relative protein levels were determined by quantification of the protein of interest band intensity normalized to the loading control with the ImageJ software. […]
the mean (dashed lines) are indicated. Representative images are shown (bottom). Scale bar: 10 μm.
This experiment was repeated three times. (B) QIBC analysis of chromatin-bound GFP-FAN1 foci in U2OSGFP-FAN1 cells were concurrently mock-treated (-) or treated (+) with MMC (150 ng/ml) and either FT671 (10 µM) or GNE-6640 (10 µM) for 24 h. […] 24 h later, cells were either mock-treated (-) or treated (+) with MMC (1 μg/ml) for 48 h and whole-cell lysates were analysed by immunoblotting. […]
Relative FAN1 protein levels were determined by quantification of FAN1 band intensity (normalized to GAPDH) with the ImageJ software. […]

SMILES: CO[C@@]12[C@H](COC(N)=O)C3=C(C(=O)C(C)=C(N)C3=O)N1C[C@@H]1N[C@@H]12 [MMC, Mitomycin C]
- apoptosis (cleavage of PARP-1 and caspase-3): largely recapitulated
